Patent US20120308548A1 (NOVA SOUTHEASTERN UNIVERSITY, priority 2010, published 2012)
Values joined by “and” are separate entries in the source; they are usually repeats but may differ in a detail not shown here. Equal entries are not always repeated. “Also recorded” adds a separate entry of the source. Where two headings read alike, the source gives them in different places.

Assays:
[1] = biological target: T1, MEGL/2ABD (Porphyromonas gingivalis, UniProt Q7MX71); format: biochemical; details: isotope assay, FIG. 13E
T1 construct: hexa-His tag with TEV protease site (N, cleaved yes); made in house; host or cells: E. coli BL21 (DE3)
Protocol: Typically the overall reaction of α-ketobutyrate formation was performed in a total volume of 24 μl. The reaction contained 4 μl of reaction buffer [150 mM Tris-HCl (pH 8.0)], 4 μl of 1 mM pyridoxal phosphate (PLP), 3 μl of H2O, 6 μl of storage buffer, and 4 μl of diluted protein (0.4 μg), gently mixed and incubated at 37° C. for 5 minutes. The reaction was started by adding 1.93×10^5 cpm of 1-^14C-L-methionine (8814 cpm/nmol) and the contents were incubated at 37° C. for 15 minutes. The reaction was stopped by boiling for a minute, cooled on ice for 2 minutes and centrifuged at 3575 g for 7 minutes. A 2 μl aliquot was then chromatographed on a silica gel plate using 25% 20 mM phosphate buffer (pH 7.0) and 75% acetonitrile. Following chromatography, the TLC plates were dried, and exposed to x-ray film for 36-48 hours (Eastman-Kodak Co). The respective spots of substrate and products were cut out and radioactivity determined by liquid scintillation. […]

[2] = test system: HEK-AD293T cells; test: Transfection with MEGL/2ABD construct, confocal microscopy, HEK-AD293T; format: cell-based; details: for effect of expressed MEGL/2ABD on HEK-AD293T cells: cell aggregation: 18 hours after transfection
From the text: (§1) The recombinant vector pMEGL-ET containing MEGL insert and pEGFP-C3 mammalian expression vector (Promega, Inc.) were digested with EcoR I and Bgl II restriction enzymes. The digested products were separated on 1% agarose to verify digestion and the MEGL insert was ligated into pEGFP-C3 vector. The ligated vector was then transformed into DH5α bacteria and the recombinant colonies were selected by kanamycin resistance. The plasmid from the recombinant colonies, were further tested for the insert by PCR using MEGL/2ABD specific primers. The recombinant bacteria, was then grown in bulk, plasmid isolated by maxi/mini preps using columns (Qiagen, Inc.). Purified plasmid was then used for mammalian transfection. HeLa, HEK-AD293T and BHK-21 cells (ATCC, Rockville, Md.) were grown in 75-cm^2 flasks in Dulbecco's modified Eagle's medium, supplemented with 10% fetal bovine serum 100 units/ml penicillin and 100 μg/ml streptomycin (Invitrogen Inc), in an atmosphere of 5% CO2, 95% air at 37° C. For confocal microscopy, cells were plated on cover slips in 35 mm^2 dishes. When cells reached 50-75% confluency they were placed in serum and antibiotic-free medium and co-transfected with plasmid DNA containing GFP and with or without MEGL/2ABD insert. […] Transfections of HEK-AD293T cells were performed using standard calcium phosphate methods. After incubation of cells for 4-18 hours, cells were washed with phosphate-buffered saline, fixed with 4% formaldehyde for 8 minutes, permeabilized using 0.2% Triton X-100 (Sigma-Aldrich) and mounted on glass slides using the ProLong Antifade Kit (Molecular Probes) for staining with DAPI using standard protocols. Samples were examined on a Zeiss LSM510 confocal microscope.
(§2) After 18 hour incubations cells were washed with phosphate-buffered saline, fixed, permeabilized and mounted on glass slides using the ProLong Antifade Kit (Molecular Probes) with DAPI staining as previously described by Enniga et al. 2006. Samples were examined on a Zeiss LSM510 confocal microscope.

[3] = biological target: T2, MEGL (Porphyromonas gingivalis, UniProt Q7MX71); format: biochemical
T2 construct: His tag (N, cleaved yes); made in house
Protocol: This assay uses C^14-labeled methionine and recombinant, purified, HIS-TAG cleaved and further purified MEGL protein. The MEGL enzyme forms very specific radiolabeled nonvolatile C^14-labeled α-ketobutyrate. Further the products are separated by a silica gel-G thin layer chromatography (TLC) method using 75% acetonitrile and 25% 20 mM phosphate buffer (pH 7.0) solvent system.
Further characterization of the enzyme was made using these protocols.

[4] = test system: BHK-21 cells; test: Transfection with MEGL/2ABD construct, confocal microscopy, BHK-21; format: cell-based; details: for effect of expressed MEGL/2ABD on BHK-21 cells: cell aggregation: 18 hours after transfection
From the text: as §1, §2

[5] = test system: HeLa cells; test: Transfection with MEGL/2ABD construct, confocal microscopy (GFP, DAPI), HeLa; format: cell-based; details: for rescue of MEGL/2ABD-transfected HeLa cells from death: propargylglycine in culture medium (10 μM, 2 hours after transfection)
From the text: as §1, §2

[6] = test system: BHK-21 cells; details: BHK-21, 18 hours after transfection
Protocol: (§3) The effect of MEGL on cell viability was determined using 3-[4,5-dimethylthiazol-2-yl]-2,5-diphenyl-tetrazolium bromide (MTT, Sigma-Aldrich). For MTT assay, cells were suspended at a concentration of ˜4×10^4 cells (180 μl/well). 20 μl of MTT solution (5 mg/ml) was added for each well and incubate at 37° C. and 5% CO2 for about 2-5 hours for purple color development. Formazan precipitates were dissolved in DMSO for 30 minutes at 37° C., and the absorbance was measured at 570 nm.
(§4) Viability of cells transfected with MEGL construct. Three different cell lines (Hela, BHK-21, and HEK-AD293T) were plated in 96-well plates and transfected with either vector expressing green fluorescent protein, GFP (pEGFP-C3), or MEGL and GFP (pEGFP-C3-MEGL). After 18 hours of transfection, cells were treated with MTT and viability was determined by measuring the MTT absorbance at λ570 nm. Control absorbance was arbitrarily determined as 100% viability.

[7] = test system: HEK-AD293T cells; details: 18 hours after transfection
Protocol: as §3, §4

[8] = Protocol: Typically the overall reaction of α-ketobutyrate formation was performed in a total volume of 24 μl. The reaction contained 4 μl of reaction buffer [150 mM Tris-HCl (pH 8.0)], 4 μl of 1 mM pyridoxal phosphate (PLP), 3 μl of H2O, 6 μl of storage buffer, and 4 μl of diluted protein (0.4 μg), gently mixed and incubated at 37° C. for 5 minutes. The reaction was started by adding 1.93×10^5 cpm of 1-^14C-L-methionine (8814 cpm/nmol) and the contents were incubated at 37° C. for 15 minutes. The reaction was stopped by boiling for a minute, cooled on ice for 2 minutes and centrifuged at 3575 g for 7 minutes. A 2 μl aliquot was then chromatographed on a silica gel plate using 25% 20 mM phosphate buffer (pH 7.0) and 75% acetonitrile. Following chromatography, the TLC plates were dried, and exposed to x-ray film for 36-48 hours (Eastman-Kodak Co). The respective spots of substrate and products were cut out and radioactivity determined by liquid scintillation.
The activity was measured using different amounts of protein ranging from 0.1 to 1 μg and the reaction was performed for 5-30 minutes.
Reaction at each protein concentration was performed for 15 minutes at pH 8.0 according to the standard assay procedures described. Effect of time was tested using 0.4 μg of protein. […]

[9] = propargylglycine in culture medium (10 μM, 2 hours after transfection)

T2 sequence (Q7MX71 7-399): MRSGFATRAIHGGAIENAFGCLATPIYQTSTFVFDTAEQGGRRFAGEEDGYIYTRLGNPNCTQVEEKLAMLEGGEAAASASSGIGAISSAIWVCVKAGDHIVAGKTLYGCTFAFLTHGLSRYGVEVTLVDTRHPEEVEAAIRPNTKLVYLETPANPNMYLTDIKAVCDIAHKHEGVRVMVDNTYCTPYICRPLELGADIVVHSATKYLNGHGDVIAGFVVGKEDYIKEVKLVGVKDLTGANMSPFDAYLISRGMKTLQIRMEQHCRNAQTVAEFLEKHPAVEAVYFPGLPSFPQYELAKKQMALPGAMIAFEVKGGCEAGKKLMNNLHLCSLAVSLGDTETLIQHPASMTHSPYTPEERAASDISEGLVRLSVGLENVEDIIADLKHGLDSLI
T1 sequence (Q7MX71 7-399): as above

CSCC[C@@H](N)C(=O)O [D-methionine]
relative MEGL/2ABD activity (L-methionine) in the presence of competing compound [1]: 43.6%

N[C@@H](CCSC[C@H](N)C(=O)O)C(=O)O [L-cystathionine]
relative MEGL/2ABD activity (L-methionine) in the presence of competing compound [1]: 54.6%

N[C@@H](CS)C(=O)O [L-cysteine]
relative MEGL/2ABD activity (L-methionine) in the presence of competing compound [1]: 24.5% and 25.5%

N[C@@H](CCOC(=O)CCC(=O)O)C(=O)O [o-succinyl-homoserine, O-succinyl L-homoserine]
relative MEGL/2ABD activity (L-methionine) in the presence of competing compound [1]: 45.6%

C#CCC(N)C(=O)O (centres unmarked) [propargylglycine, reference compound]
effect on cell aggregation of MEGL/2ABD-transfected HEK-AD293T cells [2, 9]: inhibited MEGL/2ABD mediated cell aggregation; also recorded: prevented cell aggregation; also recorded: inhibited the cell aggregation | effect of suicide inhibitor on MEGL activity [3]: completely knocked out the MEGL activity | effect on cell aggregation of MEGL/2ABD-transfected BHK-21 cells [4, 9]: inhibited MEGL/2ABD mediated cell aggregation; also recorded: prevented cell aggregation; also recorded: inhibited the cell aggregation | rescue of MEGL/2ABD-transfected HeLa cells from death [5]: restores cells from death; also recorded: restored viability | rescue of MEGL/2ABD-transfected HeLa cells from death ([5]; listed as Propargylglycine): restored cells from death | rescue of MEGL/2ABD-transfected HeLa cells from death ([5]; listed as propargyl glycine): restored nearly all cells from death | relative MEGL/2ABD activity (L-methionine) in the presence of competing compound [1]: 0.26%

C[Se]CC[C@H](N)C(=O)O [selenomethionine]
relative MEGL/2ABD activity (L-methionine) in the presence of competing compound [1]: 33.15% | relative MEGL/2ABD activity (L-methionine) in the presence of competing compound ([1]; listed as seleno-methionine): 33.2%

C[S+]([O-])CC[C@H](N)C(=O)O (some centres unmarked) [sulfoxymethionine, methionine-sulfoxide]
relative MEGL/2ABD activity (L-methionine) in the presence of competing compound [1]: 46.71% | relative MEGL/2ABD activity (L-methionine) in the presence of competing compound ([1]; listed as methionine-sulfoxide): 46.7%

methionine gamma lyase-2-aminobutyrate deaminase [MEGL-2ABD]
effect of expressed MEGL/2ABD on HEK-AD293T cells: cell aggregation [2]: severe cell aggregation | effect of expressed MEGL/2ABD on HEK-AD293T cells: cell aggregation ([2]; listed as MEGL): very prominent cell aggregation | effect of expressed MEGL/2ABD on HEK-AD293T cells: cell aggregation ([2]; listed as MEGL/2ABD): severe cell aggregation; also recorded: significant cell aggregation | cell death (words) ([6]; listed as MEGL): no significant cell death | cell death (words) ([6]; listed as MEGL/2ABD): no cell death | cell death (words) ([7]; listed as MEGL): no significant cell death | cell death (words) ([7]; listed as MEGL/2ABD): no cell death | optimal temperature [3]: 37-55 °C | pH optimum [3]: 8.0 | Vmax ([3]; oral pathology section): 0.57 μmol/min/mg protein | overall α-ketobutyrate formation at temperatures 72-93° C. ([8]; 72-93° C.): very minimal | temperature range of optimal activity ([8]; 15 minutes, pH 8.0, 0.4 μg protein): 37-55 °C | effect of expressed MEGL/2ABD on BHK-21 cells: cell aggregation [4]: severe cell aggregation | effect of expressed MEGL/2ABD on BHK-21 cells: cell aggregation ([4]; listed as MEGL): very prominent cell aggregation | effect of expressed MEGL/2ABD on BHK-21 cells: cell aggregation ([4]; listed as MEGL/2ABD): severe cell aggregation; also recorded: significant cell aggregation | effect of expressed MEGL/2ABD on HeLa cells ([5]; 18 hours after transfection, listed as MEGL/2ABD): causes cell death; also recorded: significant cell death; also recorded: significant apoptosis | HeLa cell death ([5]; within 18 hours of transfection, judged by confocal images): 30%
